Values joined by “and” are separate entries in the source; they are usually repeats but may differ in a detail not shown here. Equal values may be shown once.
How the values were obtained:
PXR LBD = target: T1, PXR LBD (Homo sapiens, UniProt O75469); assay: Mammalian two-hybrid PXR LBD assembly assay; type: cell-based; conditions: HepG2, 10 µM, 24 h
T1 construct: GAL4-DBD/PXR(132–188); VP16-AD/PXR(189–434); expressed in transfected cells; host or cells: HepG2
T1 sequence (O75469 132-188): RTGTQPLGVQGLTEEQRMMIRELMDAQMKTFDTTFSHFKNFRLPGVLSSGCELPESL
T1 sequence (O75469 189-434): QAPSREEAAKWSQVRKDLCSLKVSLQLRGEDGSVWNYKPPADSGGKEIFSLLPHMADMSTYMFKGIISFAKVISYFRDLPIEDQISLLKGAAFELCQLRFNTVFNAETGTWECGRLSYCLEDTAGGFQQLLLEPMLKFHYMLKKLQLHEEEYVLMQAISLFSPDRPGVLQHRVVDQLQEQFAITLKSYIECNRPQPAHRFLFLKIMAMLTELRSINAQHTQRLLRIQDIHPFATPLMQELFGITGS
Experimental: For the mammalian two-hybrid PXR ligand-binding domain assembly assay, 0.24 µg pGL4-G5, 0.01 µg pMetLuc2control, and 0.03 µg each of expression plasmids encoding GAL4-DBD/PXR(132–188) and VP16-AD/PXR(189–434) fusion proteins were used per well. Otherwise, batch transfection was performed as above with HepG2 cells.
Figure 5 PXR binding of phenylaminobenzosuberones is indicated by cellular PXR LBD assembly assay and inhibition of LBP-filled PXR mutant (A) Novel compounds induce PXR LBD assembly. […] (B) Effects of novel compounds on LBP-filled PXR mutant. HepG2 cells were transiently transfected with CYP3A4 reporter and expression plasmid encoding PXR(S208W/S247W/C284W) and treated as described above. […] Statistically significant differences are illustrated with asterisks. ** p ˂ 0.01, compared to respective treatments with DMSO analyzed by repeated measures one-way ANOVA with Dunnett’s multiple comparisons test.

VDR = target: T2, VDR (Homo sapiens, UniProt P11473); assay: Nuclear receptor selectivity reporter assay, VDR; type: cell-based; conditions: for reduction of ligand-induced VDR activation: HepG2, 10 µM compound + 1 µM 1α,25(OH)2D3
T2 construct: expressed in transfected cells; host or cells: HepG2
T2 sequence (P11473 1-427): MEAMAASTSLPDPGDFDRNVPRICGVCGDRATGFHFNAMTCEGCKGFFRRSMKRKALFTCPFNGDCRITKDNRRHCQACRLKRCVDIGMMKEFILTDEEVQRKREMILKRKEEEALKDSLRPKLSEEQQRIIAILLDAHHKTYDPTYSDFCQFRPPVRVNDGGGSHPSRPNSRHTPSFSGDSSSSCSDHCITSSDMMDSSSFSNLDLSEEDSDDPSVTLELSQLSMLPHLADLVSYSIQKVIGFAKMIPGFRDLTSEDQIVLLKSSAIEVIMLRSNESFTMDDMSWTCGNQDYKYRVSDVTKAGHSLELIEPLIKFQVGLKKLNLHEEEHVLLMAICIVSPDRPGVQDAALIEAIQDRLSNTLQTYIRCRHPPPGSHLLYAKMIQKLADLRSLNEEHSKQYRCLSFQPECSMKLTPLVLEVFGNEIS
Experimental: For testing nuclear receptor selectivity and LBP-filled PXR mutant activation, transient batch transfection was conducted as above, but with HepG2 cells and the following plasmids, with amounts per well of 0.23–0.27 µg pGL4-CYP3A4(-7830Δ7208-364) or pGL3(DR3)3Tk (as reporter for VDR), 0.01 µg pMetLuc2control, and 0.03 µg either CAR1, CAR3, VDR, or PXR(S208W/S247W/C284W) expression plasmids. In addition, 0.03 µg RXRα expression plasmid was added to CAR3 transfections. Metridia luciferase activity was measured from 10 µL of medium supernatant after adding 100 µL Renilla luciferase assay solution.
Figure 6 Selectivity of novel PXR ligands within the NR1I group of nuclear receptors. HepG2 cells were transiently transfected with CYP3A4 reporter and expression plasmids encoding (A) CAR1 or (B) CAR3, or (C) direct repeat (DR3)3 reporter and expression plasmid encoding VDR. Cells were treated with 0.2% DMSO or 10 µM chemicals as indicated. 1α,25(OH)2D3 was used at 1 µM.

ABCB1 = assay: PXR target gene mRNA expression in LS174T cells (RT-qPCR); conditions: for expression of ABCB1 mRNA: 10 µM single treatment, 48 h (109) or 72 h (73, 100); for effect on rifampicin-mediated induction of ABCB1: 10 µM compound + 10 µM rifampicin, 72 h
Experimental: (§1) In chemical treatments, phenol red-free DMEM was used, and regular FBS was replaced by dextran-coated charcoal-treated FBS. For gene expression analyses, 0.3 × 10^6 LS174T cells were seeded per well of a 12-well plate. The next day, chemical treatment was initiated for 48–72 h, with daily medium change.
(§2) Total RNA was prepared from LS174T and HepaRG cells using the NucleoSpin RNA kit (Macherey-Nagel, Düren, Germany). RNA integrity was analyzed by formaldehyde-agarose gel electrophoresis. First strand cDNA was synthesized as described earlier [37]. Relative quantification analyses were conducted with TaqMan RT-PCR utilizing the BioMark HD system and FLEX Six Gene Expression Integrated Fluidic Circuits (Fluidigm, South San Francisco, CA, USA) as described previously [34]. TaqMan gene expression assays were either the commercially available predesigned assays Hs00184500_m1 (ABCB1) and Hs00604506_m1 (CYP3A4) (Thermo Fischer Scientific) or have been described previously: CYP2B6 [31] and 18S rRNA [39]. Data were analyzed as described previously [37]. Gene expression levels were normalized to respective 18S rRNA levels.

CYP3A4 = assay: as above; conditions: 10 µM single treatment, 48 h (109) or 72 h (73, 100)
Experimental: as §1, §2

PXR = target: T3, PXR (Homo sapiens, UniProt O75469); assay: PXR-dependent CYP3A4 reporter gene assay, agonist mode; type: cell-based; design: expressed in transfected cells; host or cells: H-P cells (HepG2 stably transfected with PXR); conditions: H-P cells; for EC50 / fold induction at 24 h: compound alone; for EC50 / activation of CYP3A4 reporter on their own, % of rifampicin activity: 24 h; for EC50: read-out: EC50, PXR activation; for fold induction at 24 h: human, vs DMSO, read-out: maximal effect (Emax), fold induction; for activation of CYP3A4 reporter on their own, % of rifampicin activity: 10 µM compound alone, 10 µM rifampicin = 100%
T3 sequence (O75469 1-434): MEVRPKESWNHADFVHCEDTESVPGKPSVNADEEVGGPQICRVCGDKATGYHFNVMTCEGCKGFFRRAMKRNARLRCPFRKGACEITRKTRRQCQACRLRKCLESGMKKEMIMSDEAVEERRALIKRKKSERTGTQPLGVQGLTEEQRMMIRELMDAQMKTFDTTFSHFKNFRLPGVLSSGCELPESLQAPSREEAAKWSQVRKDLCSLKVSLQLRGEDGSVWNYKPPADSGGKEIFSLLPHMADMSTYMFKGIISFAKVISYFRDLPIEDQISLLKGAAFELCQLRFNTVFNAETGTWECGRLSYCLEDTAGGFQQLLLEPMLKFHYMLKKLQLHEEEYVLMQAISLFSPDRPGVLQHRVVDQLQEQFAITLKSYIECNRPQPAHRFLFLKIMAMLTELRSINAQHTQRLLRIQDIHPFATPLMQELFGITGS
Text: Figure 1 Identification of novel putative PXR ligands from the TüKIC library. (A) Workflow of the in silico screening and structures of the identified candidate ligands. (B) Concentration–response curves of the novel inhibitors for antagonism of PXR activity. (C) Concentration–response curves of the same compounds and 109 for PXR activation. […] Data are expressed as mean ± SD fold induction with respect to the DMSO-treated cells from three independent experiments. IC50 and EC50 values calculated with nonlinear regression using formula with 3 parameters (constraint bottom =1) using GraphPadPrism.
Supplementary Figure S1. Effects of 56 in silico screened TüKIC compounds (A) alone or (B) in combination […]
H-P cells were transiently
Luciferase activities were measured after 24 h treatment. Data is expressed as mean ± SD %. Activation was calculated according to Zhu et al. from three independent experiments with technical triplicates. Fold induction achieved by 10 μM […]
Green and red dashed lines represent the 100% and 50% activation, respectively.
(1 picture or pasted object on this page, not shown here)

| SMILES | assembly of the PXR LBD (PXR LBD) | activation of VDR, % of the effect of 1α,25-dihydroxy vitamin D3 (VDR; HepG2, 10 µM) [%] | expression of ABCB1 mRNA (ABCB1) | expression of CYP3A4 mRNA (CYP3A4) | EC50 (PXR) | fold induction at 24 h (PXR) | activation of VDR on their own (VDR; HepG2, 10 µM) | reduction of ligand-induced VDR activation (VDR) | effect on rifampicin-mediated induction of ABCB1 (ABCB1) | activation of CYP3A4 reporter on their own, % of rifampicin activity (PXR) |
| --- | --- | --- | --- | --- | --- | --- | --- | --- | --- | --- |
| O=C(Nc1ccc(F)c(Nc2ccc3c(c2)CCCCC3=O)c1)c1cccc(F)c1 [Compound 109] | induced the assembly of the PXR LBD | 5 | induced to a lesser extent than by rifampicin | induced both genes | 44 µM and 29.2 µM | 27 | – | – | – | – |
| Cc1ccc(NC(=O)Cc2ccccc2)cc1Nc1ccc2c(c1)CCCCC2=O [Compound 73] | induced the assembly of the PXR LBD | – | not induced | induced CYP3A4 expression, which was comparable to induction by rifampicin | 0.41 µM | ~2 | Neither CAR3 nor VDR were activated | 51% | suppressed its rifampicin-mediated induction | about 10% |
| O=C(Cc1ccccc1)Nc1ccc(F)c(Nc2ccc3c(c2)CCCCC3=O)c1 [Compound 100] | induced the assembly of the PXR LBD | – | not induced | induced CYP3A4 expression, which was comparable to induction by rifampicin | 0.15 µM | ~2 | Neither CAR3 nor VDR were activated | no respective effects | suppressed its rifampicin-mediated induction | about 10% |

Reference: paper PMC9030254, “Target Hopping from Protein Kinases to PXR: Identification of Small-Molecule Protein Kinase Inhibitors as Selective Modulators of Pregnane X Receptor from TüKIC Library” (Cells, 2022)
